Reference: publication PMC10817943 (Nature Communications, 2024)
Read-outs that look alike come from different tables or passages of the source.

Assays:
[1] = system: M. smegmatis mc^2155 reporter strain harboring PradA-LUX; settings: RadA reporter, ciprofloxacin 0.06 µg/mL, MPA 0.125 µg/mL
[2] = system: M. smegmatis mc^2155 reporter strain harboring PrecA-LUX; settings: RecA reporter, ciprofloxacin 0.06 µg/mL, MPA 0.125 µg/mL

Q: Which results are given for `O=C(O)c1cn(C2CC2)c2cc(N3CCNCC3)c(F)cc2c1=O` [ciprofloxacin, Ciprofloxacin, reference compound]?
A: luminescence induction ([1]; elapsed time 0:00:00): 123 RLU; luminescence induction ([1]; elapsed time 3:00:00): 1612 RLU; luminescence induction ([1]; elapsed time 6:00:00): 2073 RLU; luminescence induction ([1]; elapsed time 9:00:00): 2126 RLU; luminescence induction ([1]; elapsed time 12:00:00): 1993 RLU; luminescence induction ([1]; elapsed time 15:00:00): 2134 RLU; luminescence induction ([1]; elapsed time 18:00:00): 2689 RLU; luminescence induction ([1]; elapsed time 21:00:00): 4077 RLU; luminescence induction ([1]; elapsed time 24:00:00): 6491 RLU; luminescence induction ([1]; elapsed time 27:00:00): 10903 RLU; luminescence induction ([1]; elapsed time 30:00:00): 19150 RLU; luminescence induction ([1]; elapsed time 33:00:00): 33571 RLU; luminescence induction ([1]; elapsed time 36:00:00): 56395 RLU; luminescence induction ([1]; elapsed time 39:00:00): 67383 RLU; luminescence induction ([1]; elapsed time 42:00:00): 103238 RLU; luminescence induction ([1]; elapsed time 45:00:00): 85422 RLU; luminescence induction ([1]; elapsed time 48:00:00): 47660 RLU; luminescence induction ([1]; elapsed time 51:00:00): 21645 RLU; luminescence induction ([1]; elapsed time 54:00:00): 9619 RLU; luminescence induction ([1]; elapsed time 57:00:00): 4843 RLU; luminescence induction ([1]; elapsed time 60:00:00): 2928 RLU; luminescence induction ([1]; elapsed time 63:00:00): 1993 RLU; luminescence induction ([1]; elapsed time 66:00:00): 1543 RLU; luminescence induction ([1]; elapsed time 69:00:00): 1199 RLU; luminescence induction ([1]; elapsed time 72:00:00): 998 RLU; luminescence induction ([1]; elapsed time 75:00:00): 761 RLU; luminescence induction ([1]; elapsed time 78:00:00): 636 RLU; luminescence induction ([1]; elapsed time 81:00:00): 547 RLU; luminescence induction ([1]; elapsed time 84:00:00): 460 RLU; luminescence induction ([1]; elapsed time 87:00:00): 387 RLU; luminescence induction ([2]; elapsed time 0:00:00): 1225 RLU; luminescence induction ([2]; elapsed time 3:00:00): 9623 RLU; luminescence induction ([2]; elapsed time 6:00:00): 25614 RLU; luminescence induction ([2]; elapsed time 9:00:00): 37445 RLU; luminescence induction ([2]; elapsed time 12:00:00): 44651 RLU; luminescence induction ([2]; elapsed time 15:00:00): 48781 RLU; luminescence induction ([2]; elapsed time 18:00:00): 52120 RLU; luminescence induction ([2]; elapsed time 21:00:00): 57807 RLU; luminescence induction ([2]; elapsed time 24:00:00): 68911 RLU; luminescence induction ([2]; elapsed time 27:00:00): 89348 RLU; luminescence induction ([2]; elapsed time 30:00:00): 122834 RLU; luminescence induction ([2]; elapsed time 33:00:00): 178492 RLU; luminescence induction ([2]; elapsed time 36:00:00): 273065 RLU; luminescence induction ([2]; elapsed time 39:00:00): 424870 RLU; luminescence induction ([2]; elapsed time 42:00:00): 486228 RLU; luminescence induction ([2]; elapsed time 45:00:00): 462582 RLU; luminescence induction ([2]; elapsed time 48:00:00): 485841 RLU; luminescence induction ([2]; elapsed time 51:00:00): 408474 RLU; luminescence induction ([2]; elapsed time 54:00:00): 246511 RLU; luminescence induction ([2]; elapsed time 57:00:00): 125742 RLU; luminescence induction ([2]; elapsed time 60:00:00): 64490 RLU; luminescence induction ([2]; elapsed time 63:00:00): 37695 RLU; luminescence induction ([2]; elapsed time 66:00:00): 23762 RLU; luminescence induction ([2]; elapsed time 69:00:00): 17429 RLU; luminescence induction ([2]; elapsed time 72:00:00): 13645 RLU; luminescence induction ([2]; elapsed time 75:00:00): 10589 RLU; luminescence induction ([2]; elapsed time 78:00:00): 8697 RLU; luminescence induction ([2]; elapsed time 81:00:00): 7129 RLU; luminescence induction ([2]; elapsed time 84:00:00): 6189 RLU; luminescence induction ([2]; elapsed time 87:00:00): 5163 RLU
